Experiments:
[1] = tested on: MDA-MB-468; settings: MDA-MB-468 (Breast Cancer), 48 hours, SRB
[2] = tested on: HOP-62; settings: HOP-62 (Non-Small Cell Lung Cancer), 48 hours, SRB
[3] = tested on: EKVX; settings: EKVX (Non-Small Cell Lung Cancer), 48 hours, SRB
[4] = tested on: 786-0; test: cells; settings: Homo sapiens, 786-0, 48 h
[5] = tested on: SK-MEL-28; settings: SK-MEL-28 (Melanoma), 48 hours, SRB
[6] = tested on: SF-295; settings: SF-295 (CNS Cancer), 48 hours, SRB
[7] = tested on: HCC-2998; test: cells; settings: Homo sapiens, HCC 2998, 48 h
[8] = tested on: COLO 205; settings: COLO 205 (Colon Cancer), 48 hours, SRB
[9] = tested on: TK-10; settings: TK-10 (Renal Cancer), 48 hours, SRB
[10] = tested on: NCI-H23; settings: NCI-H23 (Non-Small Cell Lung Cancer), 48 hours, SRB
[11] = tested on: HCT-116; test: cells; settings: Homo sapiens, HCT-116, 48 h
[12] = tested on: OVCAR-4; settings: OVCAR-4 (Ovarian Cancer), 48 hours, SRB
[13] = tested on: OVCAR-5; settings: OVCAR-5 (Ovarian Cancer), 48 hours, SRB
[14] = tested on: NCI-H522; settings: NCI-H522 (Non-Small Cell Lung Cancer), 48 hours, SRB
[15] = tested on: MOLT-4; settings: MOLT-4 (Leukemia), 48 hours, SRB
[16] = tested on: SK-OV-3; settings: SK-OV-3 (Ovarian Cancer), 48 hours, SRB
[17] = tested on: A549/ATCC; settings: A549/ATCC (Non-Small Cell Lung Cancer), 48 hours, SRB
[18] = tested on: T-47D; settings: T-47D (Breast Cancer), 48 hours, SRB
[19] = tested on: BT-549; test: cells; settings: Homo sapiens, BT-549, 48 h
[20] = tested on: SF-268; settings: SF-268 (CNS Cancer), 48 hours, SRB
[21] = tested on: KM12; settings: KM12 (Colon Cancer), 48 hours, SRB
[22] = tested on: HCT-116; settings: HCT-116 (Colon Cancer), 48 hours, SRB
[23] = tested on: LOX IMVI; settings: LOX IMVI (Melanoma), 48 hours, SRB
[24] = tested on: SK-MEL-5; settings: SK-MEL-5 (Melanoma), 48 hours, SRB
[25] = tested on: NCI-H460; settings: NCI-H460 (Non-Small Cell Lung Cancer), 48 hours, SRB
[26] = tested on: EKVX; test: cells; settings: Homo sapiens, 48 h
[27] = tested on: NCI/ADR-RES; settings: NCI/ADR-RES (Breast Cancer), 48 hours, SRB
[28] = tested on: MDA-MB-435; settings: MDA-MB-435 (Breast Cancer), 48 hours, SRB
[29] = tested on: HS578T; test: cells; settings: Homo sapiens, Hs-578T, 48 h
[30] = tested on: HCT-15; settings: HCT-15 (Colon Cancer), 48 hours, SRB
[31] = tested on: HCC-2998; settings: HCC-2998 (Colon Cancer), 48 hours, SRB
[32] = tested on: UO-31; test: cells; settings: Homo sapiens, UO-31, 48 h

## Cc1cc(C)cc(-c2ccc3c(c2)[N+]([O-])=C2C3=C[C@@]34NC(=O)C5(CCCN5C3=O)CC4C2(C)C)c1 (stereo partly drawn) [Biphenyl Analogue]
[1]
  TGI: 0.59 µM
[2]
  TGI: 3.32 µM
[3]
  TGI: 1.11 µM
[4]
  GI50: 0.192 µM
[4]; read-out: LC50
  CC50: 0.825 µM
[5]
  TGI: 1.08 µM
[6]
  TGI: 1.54 µM
[7]
  GI50: 0.269 µM
[7]; read-out: LC50
  CC50: 3.5 µM
[8]
  TGI: 0.259 µM
[9]
  TGI: 0.955 µM
[10]
  TGI: 0.84 µM
[11]
  GI50: 0.186 µM
[11]; read-out: LC50
  CC50: 0.764 µM
[12]
  TGI: 1.72 µM
[13]
  TGI: 1.7 µM
[14]
  TGI: 0.297 µM
[15]
  TGI: 0.604 µM
[16]
  TGI: 1.19 µM
[17]
  TGI: 0.834 µM
[18]
  TGI: 0.33 µM
[19]
  GI50: 0.0953 µM
[19]; read-out: LC50
  CC50: 1.7 µM
[20]
  TGI: 0.767 µM
[21]
  TGI: 0.74 µM
[22]
  TGI: 0.377 µM
[23]
  TGI: 0.273 µM
[24]
  TGI: 0.324 µM
[25]
  TGI: 1.18 µM
[26]
  GI50: 0.296 µM
[26]; read-out: LC50
  CC50: 3.47 µM
[27]
  TGI: 2.27 µM
[28]
  TGI: 0.44 µM
[29]
  GI50: 0.546 µM
[29]; read-out: LC50
  CC50: > 100 µM
[30]
  TGI: 0.322 µM
[31]
  TGI: 1.06 µM
[32]
  GI50: 0.19 µM
[32]; read-out: LC50
  CC50: 2.76 µM

Source: patent US20110105515A1, “TARGETING THE ONCOPROTEIN NUCLEOPHOSMIN” (President and Fellows of Harvard College, priority 2007, published 2011)
